Assay in all cases: inhibition of tumour cell growth, NCI panel, 48 h
Assay [1] deals with NCI-H460.
For assay [2], the system named is MOLT-4.
Assay [3] has as its system NCI-H23.
For assay [4], the system named is SK-MEL-28.
Assay [5] has as its system HCT-15.
Assay [6] deals with EKVX.
Assay [7] deals with A498.
For assay [8], the system named is SW-620.
The test system of assay [9] is NCI-H226.
Assay [10] relates to SK-MEL-5.
Assay [11] relates to SR.
Assay [12] deals with SF-539.
Assay [13] relates to DMS-114.
Assay [14] has as its system SNB-75.
Assay [15] deals with OVCAR-8.
Assay [16] relates to SNB-19.
Assay [17] concerns TK-10.
Assay [18] deals with ACHN.
In assay [19] the test system is DU-145.

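Dose response: 5 concentrations. Exposure: 48 h. Format: 96-well plates. Endpoint: linear interpolation; highest concentration if not reached. Abbreviation: GI50, concentration required for 50% inhibition of growth.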 The source made the active and inactive calls. Rule as the data show it: active = GI50 up to about 1.1 µM and inactive = higher.

`CC1=C(C(=O)Nc2ccccc2C)C(c2ccccc2O)C(C(=O)Nc2ccccc2C)=C(C)N1`: the GI50 in [1] was 17.1 µM (inactive); in [2] it was 27.5 µM (inactive); in assay [3], 34.2 µM (inactive); in [4], 28 µM (inactive); in assay [5] it was 16 µM; in assay [6], 30.8 µM (inactive). For the same compound, the GI50 was 21.4 µM (inactive) in [7]; 33 µM (inactive) in assay [8]; 23.8 µM (inactive) in assay [9]; 20 µM (inactive) in assay [10]; 12.3 µM (inactive) in [11]; 17.3 µM (inactive) in assay [12]. Moreover, the GI50 is 22 µM (inactive) in [13]; 24.5 µM (inactive) in assay [14]; 19.8 µM (inactive) in assay [15]; 23.4 µM (inactive) in assay [16]; 29.2 µM (inactive) in assay [17]; 22.3 µM (inactive) in [18].

`C[Si](C)(C)/C(Br)=C\CCN1C(=O)CCC1=O`: the GI50 was > 100 µM (inactive) in [1]; > 100 µM (inactive) in assay [2]; > 100 µM (inactive) in assay [3]; > 100 µM (inactive) in assay [4]; more than 100 µM in assay [5]; > 100 µM (inactive) in assay [6]. For the same compound, the GI50 in assay [7], in assay [8], in assay [9], in [10], in assay [11] and in [12] was > 100 µM (inactive) in each case. The GI50 in assay [13] was > 35.2 µM (inactive); in assay [14], > 100 µM (inactive); in assay [15], > 100 µM (inactive); in assay [16], > 100 µM (inactive); in assay [17], > 100 µM (inactive); in assay [18], > 100 µM (inactive).

`CCCCCCCCCCCCCC(=O)O[C@H]1CC[C@H](NC(=O)[C@H](OC)[C@H](O)[C@@H](O)[C@H](O)/C=C/C(C)C)C(=O)N(C)C1` [BENGAMIDE B]: the GI50 in assay [1] is < 0.0015 µM (active); in assay [2] it was 0.00643 µM (active); in assay [3], 0.00977 µM (active); in assay [4], 0.0113 µM (active); in assay [5], 0.028 µM; in assay [6], 1.08 µM (active). Besides, the GI50 was > 15 µM (inactive) in [7]; 0.00433 µM (active) in assay [8]; 0.00592 µM (active) in assay [9]; 0.0199 µM (active) in assay [10]; 0.0021 µM (active) in [11]; 0.0108 µM (active) in assay [12]. Moreover, the GI50 in assay [13] is 0.00284 µM (active); in assay [14], 0.105 µM (active); in [15], 0.00782 µM (active); in assay [16], 0.008 µM (active); in assay [17], 0.179 µM (active); in [18], 0.00261 µM (active).

In the case of `O=C(O)/C=C/c1ccc(O)c(O)c1` [CAFFEIC ACID], the GI50 was > 100 µM (inactive) in assay [1]; > 100 µM (inactive) in [2]; > 100 µM (inactive) in assay [3]; > 100 µM (inactive) in [4]; more than 100 µM in assay [5]; > 100 µM (inactive) in [6]. The GI50 in [7] is > 100 µM (inactive); in assay [19], > 100 µM (inactive); in assay [8], > 43.3 µM (inactive); in assay [9], > 100 µM (inactive); in [10], > 100 µM (inactive); in assay [12], > 100 µM (inactive). Moreover, the GI50 was > 100 µM (inactive) in [13]; > 24 µM (inactive) in [14]; > 100 µM (inactive) in assay [15]; > 100 µM (inactive) in assay [16]; > 100 µM (inactive) in assay [17]; > 100 µM (inactive) in [18].

As to `C/C(=C\Cc1cc(O)ccc1O)CCc1c(C)c(O)c(O)c(C=O)c1C` [PANICEIN C], the GI50 in [1] is 23.8 µM (inactive); in [2], 17.1 µM (inactive); in assay [3], 18.4 µM (inactive); in assay [4] it was 18.1 µM (inactive); in assay [5], 31.4 µM; in [6], 36.1 µM (inactive). In addition, the GI50 in assay [7] was 49.2 µM (inactive); in [8], 35.6 µM (inactive); in [9], 34.5 µM (inactive); in [10], 15.5 µM (inactive); in assay [11], 7.38 µM (inactive); in assay [12], 18.4 µM (inactive). The GI50 in assay [13] is 18 µM (inactive); in assay [14], 33.3 µM (inactive); in assay [15] it was 17.9 µM (inactive); in [16], 35.2 µM (inactive); in assay [17], 48.2 µM (inactive); in assay [18], 20.3 µM (inactive).
